What was measured:
Assay in all cases: Test B flooded paddy test, plant response rating
Format in all cases: in vivo
[1] = system: ducksalad (Heteranthera limosa); settings: 250 g ai/ha, Flood, scale of 0 to 100 where 0 is no effect and 100 is complete control, 13 to 15 days; for pest or weed control at 250 g/ha: Heteranthera limosa, 312 h
Method in brief: (§1)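 Flooded 3 cm over soil; compound into paddy water; depth kept constant. Greenhouse 13–15 d.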

[2] = system: rice (Oryza sativa); settings: 250 g ai/ha, Flood, scale of 0 to 100 where 0 is no effect and 100 is complete control, 13 to 15 days; for plant injury at 250 g/ha: Oryza sativa, 312 h
Method in brief: as §1

[3] = system: sedge, umbrella (small-flower umbrella sedge, Cyperus difformis); settings: 250 g ai/ha, Flood, scale of 0 to 100 where 0 is no effect and 100 is complete control, 13 to 15 days; for pest or weed control at 250 g/ha: Cyperus difformis, 312 h
Method in brief: as §1

Row | Structure (SMILES) | Plant response rating, Ducksalad [1] | Plant response rating, Rice [2] | Plant response rating, Sedge, Umbrella [3] | pest or weed control at 250 g/ha [1] | plant injury at 250 g/ha [2] | pest or weed control at 250 g/ha [3]
1 | O=C(OCC(F)(F)F)c1c(Br)cccc1Oc1ncc(Cl)cn1 [Compound 35] | 50 | 0 | 60 |  |  | 
2 | O=C(OCC(F)(F)C(F)(F)F)c1c(Br)cccc1Oc1ncc(Cl)cn1 [Compound 23, 2,2,3,3,3-pentafluoropropyl 2-bromo-6-[(5-chloro-2-pyrimidinyl)oxy]benzoate] |  |  |  | 30% | 15% | 95%
3 | FC(F)(F)CCCCc1c(Cl)cccc1Oc1ncc(Cl)cn1 [Compound 137] | 95 | 50 | 95 |  |  | 
4 | C=CCOC(=O)c1c(Br)cccc1Oc1ncc(Cl)cn1 [Compound 22, 2-propen-1-yl 2-bromo-6-[(5-chloro-2-pyrimidinyl)oxy]benzoate] |  |  |  | 40% | 0% | 50%
5 | O=C(CCC(F)(F)C(F)(F)F)c1c(Br)cccc1Oc1ncc(Cl)cn1 [Compound 110] | 75 | 25 | 90 |  |  | 
6 | N#CCCOC(=O)c1c(Br)cccc1Oc1ncc(Cl)cn1 [Compound 7] | 0 | 0 | 0 |  |  | 

Reference: US11053204B2, “Pyrimidinyloxy benzene derivatives as herbicides” (FMC Corporation, priority 2015, dated 2021)
